For two molecules, IC50 results are on record in ChEMBL document CHEMBL6178005, “Novel Nonpeptide as Oxytocin Receptor Agonist” (ACS Med Chem Lett, 2025).

Broadly, the IC50 is the point on the concentration scale where inhibition reaches its midpoint.

The target of this experiment is Vasopressin V1a receptor (Homo sapiens, UniProt P37288). Kind of experiment: Antagonist activity at vasopressin V1A receptor (unknown origin) assessed as calcium level. The class given is functional.
Sequence of Vasopressin V1a receptor (P37288 whole entry): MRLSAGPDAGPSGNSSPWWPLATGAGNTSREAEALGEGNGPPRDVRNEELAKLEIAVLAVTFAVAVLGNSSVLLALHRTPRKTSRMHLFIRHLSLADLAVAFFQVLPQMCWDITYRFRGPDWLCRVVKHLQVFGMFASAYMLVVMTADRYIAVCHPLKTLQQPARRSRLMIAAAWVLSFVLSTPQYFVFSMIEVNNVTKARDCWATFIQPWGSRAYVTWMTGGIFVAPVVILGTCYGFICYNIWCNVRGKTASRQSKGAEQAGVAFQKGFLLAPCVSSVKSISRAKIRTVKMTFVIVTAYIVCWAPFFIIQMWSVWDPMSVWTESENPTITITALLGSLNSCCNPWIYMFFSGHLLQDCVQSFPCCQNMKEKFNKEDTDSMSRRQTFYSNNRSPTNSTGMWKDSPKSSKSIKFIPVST

On to `Cc1cc(C(=O)N2Cc3cnn(C)c3Nc3ccccc32)ccc1CNC(=O)N1C[C@H](OCCO)C[C@H]1C(=S)N(C)C`, for which the IC50 was 585 nM. Regarding `Cc1cc(C(=O)N2Cc3cnn(C)c3Nc3ccccc32)ccc1CNC(=O)N1C[C@H](OCc2cc(O)cc(O)c2)C[C@H]1C(=S)N(C)C`, the IC50 worked out at 2430 nM.
